Measured values taken from US12390440B2, “Immunomodulating trifluoromethyl-aminal azalides” (Zoetis Services LLC, priority 2020, dated 2025).
Converted amounts (≈) assume the structure as drawn.

What was measured:
P. multocida = experiment: Murine P. multocida intranasal challenge study, survival; assay type: in vivo; conditions: 5×10^3 CFU/mouse
Description: In one murine P. multocida intranasal challenge study, mice were administered tulathromycin (16 mg/kg; T02), M9 (32 mg/kg; T03), or ceftiofur (9 mg/kg; T04) by subcutaneous injection 18 hours after bacterial challenge (5×10^3 CFU/mouse) for lung tissue RNA sequence analysis. Survival at Day 7 was about 80%, 50%, and 90% for T02, T03, and T04, respectively, compared to placebo at 0%. Differential gene expression from total lung tissue RNA sequence analysis indicated at least 226 unique genes were up or down regulated (with significance) for T03. Output from ingenuity pathway analysis of these unique genes predicted major upstream regulators of the involved pathways. Data was analyzed based on the number of genes being modulated in the same direction that were associated with a given upstream regulator. An activation z-score of 2 or greater is considered significant and the direction change is indicated by + (activated) or − (inhibited). The top 5 pathways included: IL-9 signaling, glucocorticoid receptor signaling, prolactin signaling, JAK STAT signaling, and IL-17 signaling. The top 6 upstream regulators (activation z-score) included: lipopolysaccharide (−6.725), TNF (−4.669), IFNγ (−5.759), IL-1ß (−5.947), STAT1 (−2.787), and poly rI:rC-RNA (−5.289). Even though this study was run in the murine model, the top upstream regulators identified as being modulated by M9 include an almost ubiquitous overlap with the pathways identified in the natural disease study as being key mediators in BRD, and therefore is modulating highly relevant pathways in BRD pathobiology.

S. aureus = experiment: MIC, S. aureus; conditions: Staphylococcus aureus
[1] = tested on: M. haemolytica (strain: OSU-012103-BHI); experiment: Bovine M. haemolytica intratracheal lung challenge model; conditions: bovine M. haemolytica challenge

| Compound | Survival at Day 7 (P. multocida; 9 mg/kg (T04) subcutaneous 18 hours after challenge) | MIC (S. aureus) | IL-6 levels [1] | Survival at Day 7 (P. multocida; 16 mg/kg (T02) subcutaneous 18 hours after challenge) |
| --- | --- | --- | --- | --- |
| CO/N=C(\C(=O)N[C@@H]1C(=O)N2C(C(=O)O)=C(CSC(=O)c3ccco3)CS[C@H]12)c1csc(N)n1 [ceftiofur] | ~90% |  |  |  |
| CCCNC[C@]1(O)[C@H](C)O[C@@H](O[C@H]2[C@H](C)[C@@H](O[C@@H]3O[C@H](C)C[C@H](N(C)C)[C@H]3O)[C@](C)(O)C[C@@H](C)CN[C@H](C)[C@@H](O)[C@](C)(O)[C@@H](CC)OC(=O)[C@@H]2C)C[C@@]1(C)OC [tulathromycin, (2R,3S,4R,5R,8R,10R,11R,12S,13S,14R)-11-(((2S,3R,4S,6R)-4-(dimethylamino)-3-hydroxy-6-methyltetrahydro-2H-pyran-2-yl)oxy)-2-ethyl-3,4,10-trihydroxy-13-(((2R,4R,5S,6S)-5-hydroxy-4-methoxy-4,6-dimethyl-5-((propylamino)methyl)tetrahydro-2H-pyran-2-yl)oxy)-3,5,8,10,12,14-hexamethyl-1-oxa-6-azacyclopentadecan-15-one] |  | 8 µg/mL (≈ 9.92 µM) | significantly reduced | about 80% |
